# Data as given in BindingDB's records for patent US10123984 (Theravance Biopharma R&D Ip, 2018).
# pIC50, pKi: −log10 of the molar value.
# Target: Neprilysin (Homo sapiens, UniProt P08473)
# Assay: Enzyme NEP Inhibition Assay
# Description: The assays were performed in 384-well white opaque plates at 37° C. using the fluorogenic peptide substrates at a concentration of 10 μM in Assay Buffer (NEP: 50 mM HEPES, pH 7.5, 100 mM NaCl, 0.01% polyethylene glycol sorbitan monolaurate (Tween-20), 10 μM ZnSO4; ACE: 50 mM HEPES, pH 7.5, 100 mM NaCl, 0.01% Tween-20, 1 μM ZnSO4). […] Test compounds were added to the enzymes and incubated for 30 minute at 37° C. prior to initiating the reaction by the addition of substrate.
Structure (SMILES),pIC50,pKi
"C[C@H](C[C@@H](Cc1ccc(-c2ccccc2)cc1)NC(=O)CCCC(=O)O)C(=O)O [US10123984, Compound 21e]",7.05,
"C[C@H](C[C@@H](Cc1ccc(-c2ccccc2)cc1)NC(=O)CCCCC(=O)O)C(=O)O [US10123984, Compound 21f]",6.49,
"C[C@H](CC(Cc1ccc(-c2ccccc2)cc1)NC(=O)CC(=O)O)C(=O)O (some centres undefined) [US10123984, Compound 21g]",7.04,
"O=C(O)C(=O)N[C@H](Cc1ccc(-c2cccc(Cl)c2)cc1)C[C@@H](O)C(=O)O [US10123984, Example 2A]",,> 9.00
"CCOC(=O)C(=O)N[C@H](Cc1ccc(-c2cccc(Cl)c2)cc1)C[C@@H](O)C(=O)O [US10123984, Example 2F]",,> 9.00
"CC(C)COC(=O)C(=O)N[C@H](Cc1ccc(-c2cccc(Cl)c2)cc1)C[C@@H](O)C(=O)O [US10123984, Example 2H]",,> 9.00
"COCCOC(=O)C(=O)N[C@H](Cc1ccc(-c2cccc(Cl)c2)cc1)C[C@@H](O)C(=O)O [US10123984, Example 2T]",,> 9.00
"O=C(N[C@H](Cc1ccc(-c2cccc(Cl)c2)cc1)C[C@@H](O)C(=O)O)C(=O)OCCOc1ccccc1 [US10123984, Example 2U]",,> 9.00
"CCOCCCOC(=O)C(=O)N[C@H](Cc1ccc(-c2cccc(Cl)c2)cc1)C[C@@H](O)C(=O)O [US10123984, Example 2V]",,> 9.00
